Data from PubChem BioAssay AID248 (DTP/NCI, 2004).
“And” between values parts separate entries of the source, which are not always exact repeats. Equal entries are not always repeated. Toxic doses and inconclusive results are not listed. No stated cut-off is given here; in the data, active means T/C of 150% or more; inactive means T/C below 125%.

System: L1210 leukemia ip in BDF1 mice, survival T/C
Test: NCI In Vivo Anticancer Drug Screen. Data for tumor model L1210 Leukemia (intraperitoneal) in B6D2F1 (BDF1) mice
Conditions: endpoint: mean survival time, higher = longer survival
In short: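 Antitumor effect is assessed in tumor-bearing animals. Survival in the compound arm is compared with a vehicle-dosed control arm and expressed as their quotient.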

[1] = dose: 100.0 mg/kg/injection, schedule: Q01DX001 (ip), vehicle: saline
[2] = dose: 100.0 mg/kg/injection, schedule: Q04DX003 (ip), vehicle: saline
[3] = dose: 200.0 mg/kg/injection, schedule: Q01DX001 (ip), vehicle: saline
[4] = dose: 200.0 mg/kg/injection, schedule: Q04DX003 (ip), vehicle: saline
[5] = dose: 400.0 mg/kg/injection, schedule: Q01DX001 (ip), vehicle: saline
[6] = dose: 400.0 mg/kg/injection, schedule: Q04DX003 (ip), vehicle: saline
[7] = dose: 100.0 mg/kg/injection, schedule: Q01DX009 (ip), vehicle: Klucel (hydroxypropylcellulose) (HPC)
[8] = dose: 100.0 mg/kg/injection, schedule: Q04DX003 (ip), vehicle: Klucel (hydroxypropylcellulose) (HPC)
[9] = dose: 200.0 mg/kg/injection, schedule: Q01DX009 (ip), vehicle: Klucel (hydroxypropylcellulose) (HPC)
[10] = dose: 200.0 mg/kg/injection, schedule: Q04DX003 (ip), vehicle: Klucel (hydroxypropylcellulose) (HPC)
[11] = dose: 400.0 mg/kg/injection, schedule: Q01DX009 (ip), vehicle: Klucel (hydroxypropylcellulose) (HPC)
[12] = dose: 400.0 mg/kg/injection, schedule: Q04DX003 (ip), vehicle: Klucel (hydroxypropylcellulose) (HPC)
[13] = dose: 100.0 mg/kg/injection, schedule: Q04DX002 (ip), vehicle: saline with Tween-80
[14] = dose: 200.0 mg/kg/injection, schedule: Q04DX002 (ip), vehicle: saline with Tween-80
[15] = dose: 400.0 mg/kg/injection, schedule: Q04DX002 (ip), vehicle: saline with Tween-80
[16] = dose: 50.0 mg/kg/injection, schedule: Q01DX009 (ip), vehicle: saline with Tween-80
[17] = dose: 100.0 mg/kg/injection, schedule: Q01DX009 (ip), vehicle: saline with Tween-80
[18] = dose: 100.0 mg/kg/injection, schedule: Q01DX001 (ip), vehicle: saline with Tween-80
[19] = dose: 200.0 mg/kg/injection, schedule: Q01DX001 (ip), vehicle: saline with Tween-80
[20] = dose: 400.0 mg/kg/injection, schedule: Q01DX001 (ip), vehicle: saline with Tween-80
[21] = dose: 50.0 mg/kg/injection, schedule: Q01DX001 (ip), vehicle: saline
[22] = dose: 100.0 mg/kg/injection, schedule: Q01DX009 (ip), vehicle: saline
[23] = dose: 200.0 mg/kg/injection, schedule: Q01DX009 (ip), vehicle: saline
[24] = dose: 400.0 mg/kg/injection, schedule: Q01DX009 (ip), vehicle: saline

Measured: T/C

CCOC(=O)NCc1ccc(Cl)c(C(=O)O)c1
inactive: [1] 105 % of control | [2] 88 % of control | [3] 94 % of control | [4] 101 % of control | [5] 93 % of control | [6] 93 % of control

NS(=O)(=O)N1CCCCC1
inactive: dose: 9.5 mg/kg/injection, schedule: Q01DX001 (ip), vehicle: saline 104 % of control | dose: 19.0 mg/kg/injection, schedule: Q01DX001 (ip), vehicle: saline 104 % of control | dose: 38.0 mg/kg/injection, schedule: Q01DX001 (ip), vehicle: saline 95 % of control

C[CH2][Ge]([CH2]C)[O][Ge]([CH2]C)[CH2]C.C[CH2][Ge]([CH2]C)[O][Ge]([CH2]C)[CH2]C
inactive: dose: 5.0 mg/kg/injection, schedule: Q04DX002 (ip), vehicle: saline with Tween-80 96 % of control | dose: 10.0 mg/kg/injection, schedule: Q04DX002 (ip), vehicle: saline with Tween-80 96 % of control | dose: 20.0 mg/kg/injection, schedule: Q04DX002 (ip), vehicle: saline with Tween-80 100 % of control

CCOc1ccccc1NC(=S)NC(=O)c1cccc([N+](=O)[O-])c1
inactive: [7] 100 % of control | [8] 98 % of control | [9] 96 % of control | [10] 98 % of control | [11] 96 % of control | [12] 100 % of control

COc1cc(C2=N/C(=C\c3ccccc3O)C(=O)O2)cc(OC)c1OC
inactive: [13] 96 % of control | [14] 89 % of control | [15] 89 % of control

CC(=O)Nc1c2ccccc2nc2ccccc12
inactive: [13] 90 % of control | [14] 97 % of control | [15] 90 % of control

O=[N+]([O-])c1ccccc1C=Nc1ccccc1
inactive: dose: 100.0 mg/kg/injection, schedule: Q01DX009 (ip), vehicle: acetone 96 % of control | dose: 100.0 mg/kg/injection, schedule: Q04DX003 (ip), vehicle: acetone 106 % of control | dose: 200.0 mg/kg/injection, schedule: Q01DX009 (ip), vehicle: acetone 98 % of control | dose: 200.0 mg/kg/injection, schedule: Q04DX003 (ip), vehicle: acetone 97 % of control | dose: 400.0 mg/kg/injection, schedule: Q01DX009 (ip), vehicle: acetone 102 % of control | dose: 400.0 mg/kg/injection, schedule: Q04DX003 (ip), vehicle: acetone 101 % of control

COc1ccc(-c2nnc(Cl)o2)cc1
inactive: [2] 94 % of control

CCCCCCCCCCCC(=O)CC
inactive: [16] 96 % of control | [17] 100 % of control | dose: 100.0 mg/kg/injection, schedule: Q04DX003 (ip), vehicle: saline with Tween-80 98 % of control | dose: 200.0 mg/kg/injection, schedule: Q01DX009 (ip), vehicle: saline with Tween-80 92 % of control and 93 % of control | dose: 200.0 mg/kg/injection, schedule: Q04DX003 (ip), vehicle: saline with Tween-80 103 % of control | dose: 400.0 mg/kg/injection, schedule: Q01DX009 (ip), vehicle: saline with Tween-80 94 % of control | dose: 400.0 mg/kg/injection, schedule: Q04DX003 (ip), vehicle: saline with Tween-80 98 % of control

OC(CNc1ccccc1)CN1CCCCC1 (configuration not stated)
inactive: [2] 94 % of control

COc1c2occc2c(OC)c2c(=O)cc(/C=C/c3ccncc3)oc12
inactive: [1] 97 % of control | [3] 94 % of control | [5] 101 % of control

CC(=O)NC(C)Cc1ccc2c(c1)OCO2 (configuration not stated)
inactive: [7] 102 % of control | [9] 107 % of control

CCCCCCCCCCCCC1c2ccccc2-c2ccccc21
inactive: [1] 95 % of control | [3] 98 % of control | [5] 107 % of control

CC(=O)NC1C(OCc2ccccc2)OC(CO)C(O)C1OCc1ccccc1 (configuration not stated)
inactive: [18] 100 % of control | [19] 107 % of control | [20] 96 % of control

COc1cccc2c1C(=O)c1c(O)c3c(c(O)c1C2=O)CC(O)(C(C)=O)CC3OC1CC(N)C(OC2CC(N)C(O)C(C)O2)C(C)O1 (configuration not stated)
inactive: dose: 0.65 mg/kg/injection, schedule: Q01DX009 (ip), vehicle: saline 111 % of control | dose: 1.25 mg/kg/injection, schedule: Q01DX009 (ip), vehicle: saline 117 % of control | dose: 10.0 mg/kg/injection, schedule: Q01DX009 (ip), vehicle: saline 89 % of control

CC1(C)N([O-])[N+](=O)C1(C)C
inactive: [18] 97 % of control | [19] 101 % of control | [20] 101 % of control

ClC1=C(Cl)C2(Cl)C3(Cl)C(Cl)=C(Cl)C(Cl)(C34OCCO4)C2(Cl)C12OCCO2 (configuration not stated)
inactive: [21] 107 % of control | [1] 105 % of control | [22] 90 % of control | [2] 98 % of control | [3] 94 % of control | [23] 93 % of control | [4] 97 % of control | [5] 100 % of control | [24] 92 % of control | [6] 103 % of control

Cc1cc2ccccc2c2cc3ccccc3cc12
inactive: [7] 104 % of control | dose: 100.0 mg/kg/injection, schedule: Q04DX003 (ip), vehicle: other 111 % of control | [9] 109 % of control | dose: 200.0 mg/kg/injection, schedule: Q04DX003 (ip), vehicle: other 106 % of control | [11] 107 % of control | dose: 400.0 mg/kg/injection, schedule: Q04DX003 (ip), vehicle: other 111 % of control

O=C1Cc2ccccc2CN1
inactive: dose: 75.0 mg/kg/injection, schedule: Q01DX001 (ip), vehicle: acetone 100 % of control | dose: 150.0 mg/kg/injection, schedule: Q01DX001 (ip), vehicle: acetone 97 % of control

[S-]c1n[n+](-c2ccccc2)cs1
inactive: [1] 97 % of control | [3] 95 % of control | [5] 92 % of control

CC1(C)SC2C(NC(=O)C(C(=O)O)c3ccccc3)C(=O)N2C1C(=O)O (configuration not stated)
inactive: dose: 25.0 mg/kg/injection, schedule: Q01DX009 (ip), vehicle: saline 103 % of control | [21] 107 % of control | dose: 50.0 mg/kg/injection, schedule: Q01DX009 (ip), vehicle: saline 103 % of control | [1] 95 % of control | [22] 100 % of control and 101 % of control | [3] 102 % of control | [23] 105 % of control | [5] 101 % of control | [24] 100 % of control

CCOC(=O)C(c1cccc(OC)c1)C1(C(=O)OCC)CC2(CCC1=O)OCCO2 (configuration not stated)
inactive: [7] 93 % of control | [9] 95 % of control | [11] 88 % of control

Nc1cccc(Cl)c1
inactive: dose: 25.0 mg/kg/injection, schedule: Q01DX009 (ip), vehicle: saline with Tween-80 92 % of control | [16] 92 % of control | [17] 95 % of control | [8] 95 % of control | [10] 90 % of control

N#C[Se]C[Se]C#N
inactive: dose: 1.56 mg/kg/injection, schedule: Q01DX001 (ip), vehicle: saline 95 % of control | dose: 3.13 mg/kg/injection, schedule: Q01DX001 (ip), vehicle: saline 100 % of control | dose: 6.25 mg/kg/injection, schedule: Q01DX001 (ip), vehicle: saline 100 % of control

Cc1cc(CSC2=NCCN2)c(C)cc1CSC1=NCCN1
inactive: dose: 25.0 mg/kg/injection, schedule: Q04DX002 (ip), vehicle: saline with Tween-80 111 % of control | dose: 50.0 mg/kg/injection, schedule: Q04DX002 (ip), vehicle: saline with Tween-80 100 % of control | [13] 101 % of control and 109 % of control

O=C(Nc1cccc(NC(=O)Nc2cc(C(O)=Nc3ccc(C4=NCCN4)cc3)ccc2C(O)=Nc2ccc(C3=NCCN3)cc2)c1)Nc1cc(C(O)=Nc2ccc(C3=NCCN3)cc2)ccc1C(O)=Nc1ccc(C2=NCCN2)cc1
inactive: dose: 15.0 mg/kg/injection, schedule: Q01DX Z (ip), vehicle: saline 92 % of control | dose: 30.0 mg/kg/injection, schedule: Q01DX Z (ip), vehicle: saline 97 % of control | dose: 60.0 mg/kg/injection, schedule: Q01DX Z (ip), vehicle: saline 102 % of control | dose: 120.0 mg/kg/injection, schedule: Q01DX Z (ip), vehicle: saline 105 % of control

Fc1cccc2ccc(Br)cc12
inactive: [8] 100 % of control | [10] 100 % of control | [12] 106 % of control
